The record followed here is BindingDB's records for doi:10.1016/j.bioorg.2015.11.006 (Universiti Teknologi Mara (Uitm), 2016).

Structures are written as SMILES.

Chain of Alpha-glucosidase MAL12 (P53341 whole entry): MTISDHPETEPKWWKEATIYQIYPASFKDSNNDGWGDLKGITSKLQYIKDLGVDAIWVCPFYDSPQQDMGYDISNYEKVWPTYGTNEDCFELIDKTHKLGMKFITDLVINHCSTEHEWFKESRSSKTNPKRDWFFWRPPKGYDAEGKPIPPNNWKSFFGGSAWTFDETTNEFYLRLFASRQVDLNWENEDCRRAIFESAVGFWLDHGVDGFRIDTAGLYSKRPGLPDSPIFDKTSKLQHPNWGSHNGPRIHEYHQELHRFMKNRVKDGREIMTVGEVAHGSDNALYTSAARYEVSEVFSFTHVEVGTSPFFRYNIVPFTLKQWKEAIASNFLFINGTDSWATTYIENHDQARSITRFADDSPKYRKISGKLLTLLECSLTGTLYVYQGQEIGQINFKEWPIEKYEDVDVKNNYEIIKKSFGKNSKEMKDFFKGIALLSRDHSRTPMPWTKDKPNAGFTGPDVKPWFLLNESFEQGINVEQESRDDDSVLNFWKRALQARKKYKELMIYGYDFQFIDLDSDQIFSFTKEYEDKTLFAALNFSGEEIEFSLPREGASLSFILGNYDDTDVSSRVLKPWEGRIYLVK

The assay addresses Alpha-glucosidase MAL12 (Saccharomyces cerevisiae (strain ATCC 204508 / S288c), UniProt P53341). As to the kind of experiment: Baker's Yeast α-Glucosidase Inhibition Assay. Conditions: pH 6.8. Here is the method:
The enzyme inhibition was evaluated according to the method previously reported by Rahim et al. [25] with slight modification. Various concentration of test compounds (10 µL) were dissolved in DMSO (ranging from 200 to 6.25 µg/mL) and premixed with 95 µL of 50 mM phosphate buffer (pH 6.8). Then, 25 µL of enzyme(0.0625 U/mL) in phosphate buffer saline was added into each well and the plate was incubated at 37 °C for 10 min. Afterward, 25 µl of PNPG in phosphate buffer saline (5 mM) were added and pre-read of the plate was taken by using a microplate reader (Spectrostar Nano BMG Labtech, Germany). The reaction mixture was then incubated at 37 °C for 30 min and change in absorbance at 405 nm was monitored up to 30 min. For negative control, the test samples were replaced with 10 µL of DMSO and acarbose was used as positive control
As for `Cc1cc2nc(-c3ccc(C(=O)N/N=C/c4cc(O)c(O)c(O)c4)cc3)[nH]c2cc1C` [(E)-4-(5,6-dimethyl-1H-benzo[d]imidazol-2-yl)-N'-(3,4,5-trihydroxybenzylidene) benzohydrazide (19)], the IC50 (in general, the point on the concentration scale where inhibition reaches its midpoint) came out at 8.4 µM.

With `Cc1cc2nc(-c3ccc(C(=O)N/N=C/c4ccc(O)cc4)cc3)[nH]c2cc1C` [(E)-4-(5,6-dimethyl-1H-benzo[d]imidazol-2-yl)-N'-(4-hydroxybenzylidene) benzohydrazide (1)], the half-inhibitory concentration (IC50) was determined as 26 µM.

The compound `Cc1cc2nc(-c3ccc(C(=O)N/N=C/c4ccc(O)cc4O)cc3)[nH]c2cc1C` [(E)-N'-(2,4-dihydroxybenzylidene)-4-(5,6-dimethyl-1H-benzo[d]imidazol-2-yl) benzohydrazide (6)] registered a half-maximal inhibitory concentration (IC50) of 8.74 µM.

Take `Cc1cc2nc(-c3ccc(C(=O)N/N=C/c4ccccc4C)cc3)[nH]c2cc1C` [(E)-4-(5,6-dimethyl-1H-benzo[d]imidazol-2-yl)-N'-(2-methylbenzylidene) benzohydrazide (13)]: inhibition was half-maximal at 24.8 µM (IC50).

Take `Cc1cc2nc(-c3ccc(C(=O)N/N=C/c4ccc([N+](=O)[O-])cc4)cc3)[nH]c2cc1C` [(E)-4-(5,6-dimethyl-1H-benzo[d]imidazol-2-yl)-N'-(4-nitrobenzylidene) benzohydrazide (25)]: the IC50 stood at 19.3 µM.

`Cc1cc2nc(-c3ccc(C(=O)N/N=C/c4cc(O)ccc4O)cc3)[nH]c2cc1C` [(E)-N'-(2,5-dihydroxybenzylidene)-4-(5,6-dimethyl-1H-benzo[d]imidazol-2-yl) benzohydrazide (4)] gave an IC50 of 8.74 µM.

In the case of `Cc1cc2nc(-c3ccc(C(=O)N/N=C/c4cccc(O)c4O)cc3)[nH]c2cc1C` [(E)-N'-(2,3-dihydroxybenzylidene)-4-(5,6-dimethyl-1H-benzo[d]imidazol-2-yl)benzohydrazide (5)], inhibition was half-maximal at 9.99 µM (IC50).

Take `COc1ccc(/C=N/NC(=O)c2ccc(-c3nc4cc(C)c(C)cc4[nH]3)cc2)cc1` [(E)-4-(5,6-dimethyl-1H-benzo[d]imidazol-2-yl)-N'-(4-methoxybenzylidene) benzohydrazide (20)]: the IC50 came to 32.6 µM.

For `Cc1cc2nc(-c3ccc(C(=O)N/N=C/c4ccccn4)cc3)[nH]c2cc1C` [(E)-4-(5,6-dimethyl-1H-benzo[d]imidazol-2-yl)-N'-(pyridin-2-ylmethylene) benzohydrazide (18)], the IC50 was found to be 25.7 µM.

`Cc1cc2nc(-c3ccc(C(=O)N/N=C/c4cccc(O)c4)cc3)[nH]c2cc1C` [(E)-4-(5,6-dimethyl-1H-benzo[d]imidazol-2-yl)-N'-(3-hydroxybenzylidene) benzohydrazide (2)] returned a concentration for half-maximal inhibition (IC50) of 32.5 µM.

`COc1ccc(O)c(/C=N/NC(=O)c2ccc(-c3nc4cc(C)c(C)cc4[nH]3)cc2)c1` [(E)-4-(5,6-dimethyl-1H-benzo[d]imidazol-2-yl)-N'-(pyridin-4-ylmethylene) benzohydrazide (12)]: the half-maximal inhibitory concentration (IC50) was determined as 8.44 µM.

Consider `COc1cccc(/C=N/NC(=O)c2ccc(-c3nc4cc(C)c(C)cc4[nH]3)cc2)c1` [(E)-4-(5,6-dimethyl-1H-benzo[d]imidazol-2-yl)-N'-(3-methoxybenzylidene) benzohydrazide (24)], for which the concentration for half-maximal inhibition (IC50) turned out to be 15.1 µM.

In turn, `Cc1cc2nc(-c3ccc(C(=O)N/N=C/c4ccc(O)c(Br)c4)cc3)[nH]c2cc1C` [(E)-N'-(3-bromo-4-hydroxybenzylidene)-4-(5,6-dimethyl-1H-benzo[d]imidazol-2-yl)benzohydrazide (17)] returned an IC50 of 34.5 µM.

The compound `COc1ccc(/C=N/NC(=O)c2ccc(-c3nc4cc(C)c(C)cc4[nH]3)cc2)cc1OC` [(E)-N'-(3,4-dimethoxybenzylidene)-4-(5,6-dimethyl-1H-benzo[d]imidazol-2-yl)benzohydrazide (3)] displayed an IC50 of 180 µM.

For the compound `Cc1ccc(/C=N/NC(=O)c2ccc(-c3nc4cc(C)c(C)cc4[nH]3)cc2)cc1` [(E)-4-(5,6-dimethyl-1H-benzo[d]imidazol-2-yl)-N'-(4-methylbenzylidene) benzohydrazide (16)], the IC50 is 18.3 µM.

Consider `COc1ccc(/C=N/NC(=O)c2ccc(-c3nc4cc(C)c(C)cc4[nH]3)cc2)c(O)c1` [(E)-4-(5,6-dimethyl-1H-benzo[d]imidazol-2-yl)-N'-(2-hydroxy-4-methoxybenzylidene) benzohydrazide (10)], for which inhibition was half-maximal at 8.44 µM (IC50).

As to `Cc1cc2nc(-c3ccc(C(=O)N/N=C/c4cccc(Cl)c4)cc3)[nH]c2cc1C` [(E)-N'-(3-chlorobenzylidene)-4-(5,6-dimethyl-1H-benzo[d]imidazol-2-yl) benzohydrazide (8)], the IC50 worked out at 22.4 µM.

`COc1ccc(/C=N/NC(=O)c2ccc(-c3nc4cc(C)c(C)cc4[nH]3)cc2)cc1O` [(E)-4-(5,6-dimethyl-1H-benzo[d]imidazol-2-yl)-N'-(3-hydroxy-4-methoxybenzylidene) benzohydrazide (9)] registered an IC50 of 29 µM.

Consider `Cc1cc2nc(-c3ccc(C(=O)N/N=C/c4ccncc4)cc3)[nH]c2cc1C` [(E)-4-(5,6-dimethyl-1H-benzo[d]imidazol-2-yl)-N'-(pyridin-4-ylmethylene) benzohydrazide (11)], for which the IC50 was 148 µM.

As to `Cc1cc2nc(-c3ccc(C(=O)N/N=C/c4ccccc4O)cc3)[nH]c2cc1C` [(E)-4-(5,6-dimethyl-1H-benzo[d]imidazol-2-yl)-N'-(2-hydroxybenzylidene) benzohydrazide (15)], the IC50 is 18.2 µM.

With `Cc1cc2nc(-c3ccc(C(=O)N/N=C/c4ccco4)cc3)[nH]c2cc1C` [(E)-4-(5,6-dimethyl-1H-benzo[d]imidazol-2-yl)-N'-(furan-2-ylmethylene) benzohydrazide (21)], half-maximal inhibition (IC50) was put at 32.1 µM.

In turn, `Cc1cc2nc(-c3ccc(C(=O)N/N=C\c4ccc(Cl)cc4)cc3)[nH]c2cc1C` [(Z)-N'-(4-chlorobenzylidene)-4-(5,6-dimethyl-1H-benzo[d]imidazol-2-yl)benzohydrazide (22)] yielded an IC50 of 24.8 µM.

`Cc1cc2nc(-c3ccc(C(=O)N/N=C/c4cccc(F)c4)cc3)[nH]c2cc1C` [(E)-4-(5,6-dimethyl-1H-benzo[d]imidazol-2-yl)-N'-(3-fluorobenzylidene) benzohydrazide (26)]: the half-inhibitory concentration (IC50) came out at 158 µM.

As to `Cc1cc2nc(-c3ccc(C(=O)N/N=C/c4ccc(O)c(O)c4)cc3)[nH]c2cc1C` [(E)-N'-(3,4-dihydroxybenzylidene)-4-(5,6-dimethyl-1H-benzo[d]imidazol-2-yl) benzohydrazide (7)], 12.5 µM corresponded to half-maximal inhibition (IC50).

Take `Cc1cccc(/C=N/NC(=O)c2ccc(-c3nc4cc(C)c(C)cc4[nH]3)cc2)c1` [(E)-4-(5,6-dimethyl-1H-benzo[d]imidazol-2-yl)-N'-(3-methylbenzylidene) benzohydrazide (14)]: the IC50 worked out at 23.5 µM.

`Cc1cc2nc(-c3ccc(C(=O)N/N=C/c4cccnc4)cc3)[nH]c2cc1C` [(E)-4-(5,6-dimethyl-1H-benzo[d]imidazol-2-yl)-N'-(pyridin-3-ylmethylene) benzohydrazide (23)]: half-maximal inhibition (IC50) required 46 µM.
